System: MV-4-11 cells
Experiment: Gene expression microarray analysis (Affymetrix PrimeView) and GSEA
Type: cell-based, human
Set-up: RFU PODN (11730768_x_at) / Fold change /veh PODN (11730768_x_at) / RFU LINC00158 (11744669_a_at) / Fold change /veh LINC00158 (11744669_a_at) / RFU DUSP10 (11751237_a_at) / Fold change /veh DUSP10 (11751237_a_at) / RFU ID3 (11757404_x_at) / Fold change /veh ID3 (11757404_x_at) / RFU PLEKHG5 (11737974_s_at) / Fold change /veh PLEKHG5 (11737974_s_at) / RFU LRRC4B (11730491_at) / Fold change /veh LRRC4B (11730491_at) / RFU GIMAP4 (11747438_a_at) / Fold change /veh GIMAP4 (11747438_a_at) / RFU KRT8 (11758183_x_at) / Fold change /veh KRT8 (11758183_x_at) / RFU CNN1 (11734310_a_at) / Fold change /veh CNN1 (11734310_a_at) / RFU VPS37D (11726825_at) / Fold change /veh VPS37D (11726825_at) / RFU C10orf10 (11716522_x_at) / Fold change /veh C10orf10 (11716522_x_at) / RFU KIR2DL2 /// KIR2DL4 /// KIR2DL5A /// KIR2DL5B /// KIR2DS1 /// KIR2DS2 /// KIR2DS3 /// KIR2DS4 /// KIR3DL3 /// KIR3DL3 /// KIR3DS1 (11738374_at) / Fold change /veh KIR2DL2 /// KIR2DL4 /// KIR2DL5A /// KIR2DL5B /// KIR2DS1 /// KIR2DS2 /// KIR2DS3 /// KIR2DS4 /// KIR3DL3 /// KIR3DL3 /// KIR3DS1 (11738374_at) / RFU C1QL1 (11718748_at) / Fold change /veh C1QL1 (11718748_at) / RFU TMPRSS4 (11747572_a_at) / Fold change /veh TMPRSS4 (11747572_a_at) / RFU HAMP (11756126_x_at) / Fold change /veh HAMP (11756126_x_at) / RFU RNFT2 (11725882_a_at) / Fold change /veh RNFT2 (11725882_a_at) / RFU NR4A2 (11747474_a_at) / Fold change /veh NR4A2 (11747474_a_at) / RFU ABCC12 (11746883_a_at) / Fold change /veh ABCC12 (11746883_a_at) / RFU TMEM136 (11760407_x_at) / Fold change /veh TMEM136 (11760407_x_at) / RFU CLDN22 /// WWC2 (11732394_at) / Fold change /veh CLDN22 /// WWC2 (11732394_at) / RFU HLA-DPB1 (11760878_x_at) / Fold change /veh HLA-DPB1 (11760878_x_at) / RFU SPINT1 (11716480_a_at) / Fold change /veh SPINT1 (11716480_a_at) / RFU GAP43 (11754022_s_at) / Fold change /veh GAP43 (11754022_s_at) / RFU A4GNT (11735810_at) / Fold change /veh A4GNT (11735810_at) / RFU PRB3 (11715151_x_at) / Fold change /veh PRB3 (11715151_x_at) / RFU TUBB4B (11761932_at) / Fold change /veh TUBB4B (11761932_at) / RFU CAPN14 (11732068_a_at) / Fold change /veh CAPN14 (11732068_a_at) / RFU TMCC2 (11721928_a_at) / Fold change /veh TMCC2 (11721928_a_at) / RFU IRGQ (11745062_a_at) / Fold change /veh IRGQ (11745062_a_at) / RFU FAM174B (11720279_a_at) / Fold change /veh FAM174B (11720279_a_at) / RFU TMPRSS4 (11748680_a_at) / Fold change /veh TMPRSS4 (11748680_a_at) / RFU FAM212B (11763350_a_at) / Fold change /veh FAM212B (11763350_a_at) / RFU PLEKHG5 (11743358_a_at) / Fold change /veh PLEKHG5 (11743358_a_at) / RFU ZSCAN30 (11745921_a_at) / Fold change /veh ZSCAN30 (11745921_a_at) / RFU CMKLR1 (11741424_a_at) / Fold change /veh CMKLR1 (11741424_a_at) / RFU LOC101060620 /// MAPK8IP1 (11723275_at) / Fold change /veh LOC101060620 /// MAPK8IP1 (11723275_at) / RFU SPTSSB (11747773_x_at) / Fold change /veh SPTSSB (11747773_x_at) / RFU PRSS12 (11739890_at) / Fold change /veh PRSS12 (11739890_at) / RFU BIN1 (11741810_x_at) / Fold change /veh BIN1 (11741810_x_at) / RFU WNT11 (11732464_a_at) / Fold change /veh WNT11 (11732464_a_at) / RFU C10orf10 (11716521_a_at) / Fold change /veh C10orf10 (11716521_a_at) / RFU C5orf56 (11738089_at) / Fold change /veh C5orf56 (11738089_at) / RFU CYB561 (11721691_x_at) / Fold change /veh CYB561 (11721691_x_at) / RFU ANKRD19P (11752326_a_at) / Fold change /veh ANKRD19P (11752326_a_at) / RFU OR2T12 /// OR2T33 /// OR2T8 (11738714_s_at) / Fold change /veh OR2T12 /// OR2T33 /// OR2T8 (11738714_s_at) / RFU VCAN (11748164_a_at) / Fold change /veh VCAN (11748164_a_at) / RFU JSRP1 (11732532_at) / Fold change /veh JSRP1 (11732532_at) / RFU KRTAP10-11 (11738290_x_at) / Fold change /veh KRTAP10-11 (11738290_x_at) / RFU MYO3A (11730013_a_at) / Fold change /veh MYO3A (11730013_a_at) / RFU EBF3 (11725865_a_at) / Fold change /veh EBF3 (11725865_a_at) / RFU CAMK2N1 (11719241_x_at) / Fold change /veh CAMK2N1 (11719241_x_at) / RFU C5orf56 (11738088_a_at) / Fold change /veh C5orf56 (11738088_a_at) / RFU OLFML3 (11715873_a_at) / Fold change /veh OLFML3 (11715873_a_at) / RFU LOC100653217 /// NTM (11731650_a_at) / Fold change /veh LOC100653217 /// NTM (11731650_a_at) / RFU MAPK11 (11762145_a_at) / Fold change /veh MAPK11 (11762145_a_at) / RFU FIZ1 (11724087_x_at) / Fold change /veh FIZ1 (11724087_x_at) / RFU OASL (11726364_x_at) / Fold change /veh OASL (11726364_x_at) / RFU SOX15 (11748057_x_at) / Fold change /veh SOX15 (11748057_x_at) / RFU CD79A (11719716_a_at) / Fold change /veh CD79A (11719716_a_at) / RFU HIST1H1D (11736915_at) / Fold change /veh HIST1H1D (11736915_at) / RFU CASKIN2 (11723855_a_at) / Fold change /veh CASKIN2 (11723855_a_at) / RFU LOC730098 (11760151_x_at) / Fold change /veh LOC730098 (11760151_x_at) / RFU OR4N2 (11742367_at) / Fold change /veh OR4N2 (11742367_at) / RFU PRRT2 (11749266_a_at) / Fold change /veh PRRT2 (11749266_a_at) / RFU SNX32 (11753110_a_at) / Fold change /veh SNX32 (11753110_a_at) / RFU CDHR5 (11726645_a_at) / Fold change /veh CDHR5 (11726645_a_at) / RFU RCAN1 (11760418_a_at) / Fold change /veh RCAN1 (11760418_a_at) / RFU FAM167A (11723789_a_at) / Fold change /veh FAM167A (11723789_a_at) / RFU FAM26E (11764081_at) / Fold change /veh FAM26E (11764081_at) / RFU ISYNA1 (11749810_s_at) / Fold change /veh ISYNA1 (11749810_s_at) / RFU ACY1 (11761880_at) / Fold change /veh ACY1 (11761880_at) / RFU 11764098_at / Fold change /veh 11764098_at / RFU SAMD14 (11745864_x_at) / Fold change /veh SAMD14 (11745864_x_at) / RFU NPB (11741838_a_at) / Fold change /veh NPB (11741838_a_at) / RFU TMPRSS6 (11731388_a_at) / Fold change /veh TMPRSS6 (11731388_a_at) / RFU KRTAP10-2 (11738614_at) / Fold change /veh KRTAP10-2 (11738614_at) / RFU ARHGAP8 /// PRR5-ARHGAP8 (11727945_x_at) / Fold change /veh ARHGAP8 /// PRR5-ARHGAP8 (11727945_x_at) / RFU KRTAP5-7 /// NADSYN1 (11734609_at) / Fold change /veh KRTAP5-7 /// NADSYN1 (11734609_at) / RFU RASL12 (11751679_a_at) / Fold change /veh RASL12 (11751679_a_at) / RFU CDKN2B (11736163_a_at) / Fold change /veh CDKN2B (11736163_a_at) / RFU PRF1 (11729649_at) / Fold change /veh PRF1 (11729649_at) / RFU, ZNF638 /// ZNF638-IT1 / Fold change vs veh, ZNF638 /// ZNF638-IT1 / RFU, PANK3 / Fold change vs veh, PANK3 / RFU, SH3YL1 / Fold change vs veh, SH3YL1 / RFU, ZEB2 / Fold change vs veh, ZEB2 / RFU, NRIP1 / Fold change vs veh, NRIP1 / RFU, PTTG1IP / Fold change vs veh, PTTG1IP / RFU, CAPN2 / Fold change vs veh, CAPN2 / RFU, MED14 / Fold change vs veh, MED14 / RFU, SNORA58 / Fold change vs veh, SNORA58 / RFU, C1orf63 / Fold change vs veh, C1orf63 / RFU, LRRFIP1 / Fold change vs veh, LRRFIP1 / RFU, NDUFAF7 / Fold change vs veh, NDUFAF7 / RFU, SLC12A2 / Fold change vs veh, SLC12A2 / RFU, IBTK / Fold change vs veh, IBTK / RFU, ESF1 / Fold change vs veh, ESF1 / Fold change vs veh, TMEM50B / RFU, TAOK1 / Fold change vs veh, TAOK1 / RFU, ACBD3 / Fold change vs veh, ACBD3 / RFU, TMA16 / Fold change vs veh, TMA16 / RFU, RWDD3 / Fold change vs veh, RWDD3 / RFU, BCAT1 / Fold change vs veh, BCAT1 / RFU, EDEM3 / Fold change vs veh, EDEM3 / RFU, TMEM33 / Fold change vs veh, TMEM33 / RFU, WDR75 / Fold change vs veh, WDR75 / RFU, AHCTF1 / Fold change vs veh, AHCTF1 / RFU, TFRC / Fold change vs veh, TFRC / RFU, ZDHHC17 / Fold change vs veh, ZDHHC17 / RFU, NOM1 / Fold change vs veh, NOM1 / RFU, ARL8B / Fold change vs veh, ARL8B / RFU, ZBTB11 / Fold change vs veh, ZBTB11 / RFU, TAMM41 / Fold change vs veh, TAMM41 / RFU, KIAA1704 /// LOC100996395 / Fold change vs veh, KIAA1704 /// LOC100996395 / RFU, ING1 / Fold change vs veh, ING1 / RFU, TRMT61B / Fold change vs veh, TRMT61B / RFU, FUBP3 / Fold change vs veh, FUBP3 / RFU, TP53 / Fold change vs veh, TP53 / RFU, TNKS2 / Fold change vs veh, TNKS2 / RFU, ZFP14 / Fold change vs veh, ZFP14 / RFU, ACTR2 / Fold change vs veh, ACTR2 / RFU, PPP3R1 / Fold change vs veh, PPP3R1 / RFU, PIK3R1 / Fold change vs veh, PIK3R1 / RFU, HNRNPA1 / Fold change vs veh, HNRNPA1 / RFU, RNF170 / Fold change vs veh, RNF170 / RFU, ZNF28 / Fold change vs veh, ZNF28 / RFU, RNGTT / Fold change vs veh, RNGTT / RFU, OGT / Fold change vs veh, OGT / RFU, BRD1 / Fold change vs veh, BRD1 / RFU, MARS / Fold change vs veh, MARS / RFU, ZNF655 / Fold change vs veh, ZNF655 / RFU, FAHD1 / Fold change vs veh, FAHD1 / RFU, BDP1 / Fold change vs veh, BDP1 / RFU, LRRCC1 / Fold change vs veh, LRRCC1 / RFU, ARID1A / Fold change vs veh, ARID1A / RFU, ZNF146 / Fold change vs veh, ZNF146 / RFU, ZNF330 / Fold change vs veh, ZNF330 / RFU, GPN3 / Fold change vs veh, GPN3 / RFU, C9orf123 / Fold change vs veh, C9orf123 / RFU, N4BP2L2 / Fold change vs veh, N4BP2L2 / RFU, ARFIP1 / Fold change vs veh, ARFIP1 / RFU, FAM179B / Fold change vs veh, FAM179B / RFU, BCL10 / Fold change vs veh, BCL10 / RFU, UHRF1BP1L / Fold change vs veh, UHRF1BP1L / RFU, BET1 / Fold change vs veh, BET1 / RFU, CNOT2 / Fold change vs veh, CNOT2 / RFU, ZNF268 / Fold change vs veh, ZNF268 / Fold change vs veh, ZNF507 / RFU, DGCR2 / Fold change vs veh, DGCR2 / RFU, WDSUB1 / Fold change vs veh, WDSUB1 / Fold change vs veh, HSP90B1 /// MIR3652 / RFU, ADSS / Fold change vs veh, ADSS / RFU, GK / Fold change vs veh, GK / RFU, ZNF148 / Fold change vs veh, ZNF148 / RFU, TAF9 / Fold change vs veh, TAF9 / RFU, SLC1A5 / Fold change vs veh, SLC1A5 / RFU, SLMO2 / Fold change vs veh, SLMO2 / RFU, ABCC4 / Fold change vs veh, ABCC4 / RFU, LOC101060439 /// RAP1B / Fold change vs veh, LOC101060439 /// RAP1B / RFU, RFX7 / Fold change vs veh, RFX7 / RFU, GTPBP10 / Fold change vs veh, GTPBP10 / RFU, CNEP1R1 / Fold change vs veh, CNEP1R1 / RFU, BIVM-ERCC5 /// ERCC5 / Fold change vs veh, BIVM-ERCC5 /// ERCC5 / RFU, ILF3 / Fold change vs veh, ILF3 / RFU 11762660_at / Fold change /veh 11762660_at / RFU VCAN (11757783_s_at) / Fold change /veh VCAN (11757783_s_at) / RFU DDX43 (11728927_at) / Fold change /veh DDX43 (11728927_at) / RFU KRT8 (11758188_x_at) / Fold change /veh KRT8 (11758188_x_at) / RFU NKD1 (11759106_at) / Fold change /veh NKD1 (11759106_at) / RFU SRD5A1 (11742802_a_at) / Fold change /veh SRD5A1 (11742802_a_at) / RFU TPSAB1 /// TPSB2 (11721975_s_at) / Fold change /veh TPSAB1 /// TPSB2 (11721975_s_at) / RFU GSTM3 (11746129_a_at) / Fold change /veh GSTM3 (11746129_a_at) / RFU IL23R (11737362_x_at) / Fold change /veh IL23R (11737362_x_at) / RFU TMEM51 (11727254_a_at) / Fold change /veh TMEM51 (11727254_a_at) / RFU PIWIL2 (11732686_x_at) / Fold change /veh PIWIL2 (11732686_x_at) / RFU ORM1 (11744905_x_at) / Fold change /veh ORM1 (11744905_x_at) / RFU CCDC152 (11743942_at) / Fold change /veh CCDC152 (11743942_at) / RFU ECM1 (11717891_a_at) / Fold change /veh ECM1 (11717891_a_at) / RFU IL23R (11748794_a_at) / Fold change /veh IL23R (11748794_a_at) / RFU TNFAIP8L3 (11732012_x_at) / Fold change /veh TNFAIP8L3 (11732012_x_at) / RFU MBOAT4 (11741988_at) / Fold change /veh MBOAT4 (11741988_at) / RFU 11764193_at / Fold change /veh 11764193_at / RFU TMEM53 (11763286_at) / Fold change /veh TMEM53 (11763286_at) / RFU MAGEB2 (11727129_at) / Fold change /veh MAGEB2 (11727129_at) / RFU TMEM200A (11744735_a_at) / Fold change /veh TMEM200A (11744735_a_at) / RFU CCDC152 (11751479_a_at) / Fold change /veh CCDC152 (11751479_a_at) / RFU FAM211A (11726209_a_at) / Fold change /veh FAM211A (11726209_a_at) / RFU RGS16 (11746705_a_at) / Fold change /veh RGS16 (11746705_a_at) / RFU VCAN (11755009_s_at) / Fold change /veh VCAN (11755009_s_at) / RFU RHOB (11743442_s_at) / Fold change /veh RHOB (11743442_s_at) / RFU RGS16 (11720943_a_at) / Fold change /veh RGS16 (11720943_a_at) / RFU RGS16 (11720944_at) / Fold change /veh RGS16 (11720944_at) / RFU, VPS4B / Fold change vs veh, VPS4B / RFU, CREB1 / Fold change vs veh, CREB1 / RFU, DNAJC13 / Fold change vs veh, DNAJC13 / RFU, GNAQ / Fold change vs veh, GNAQ / RFU, CDK5R1 / Fold change vs veh, CDK5R1 / RFU, ZRANB3 / Fold change vs veh, ZRANB3 / RFU, CUL4A / Fold change vs veh, CUL4A / RFU, CCNY / Fold change vs veh, CCNY / RFU, UFL1 / Fold change vs veh, UFL1 / RFU, COG3 / Fold change vs veh, COG3 / RFU, DIAPH2 / Fold change vs veh, DIAPH2 / RFU, SKA2 / Fold change vs veh, SKA2 / RFU, AFF3 / Fold change vs veh, AFF3 / RFU, LMF1 / Fold change vs veh, LMF1 / RFU, IPO11 / Fold change vs veh, IPO11 / RFU, DFFB / Fold change vs veh, DFFB / RFU, FOXP1 / Fold change vs veh, FOXP1 / RFU, CARD8 / Fold change vs veh, CARD8 / RFU, STRN3 / Fold change vs veh, STRN3 / RFU, ADK / Fold change vs veh, ADK / RFU, RASSF2 / Fold change vs veh, RASSF2 / RFU, WIPF1 / Fold change vs veh, WIPF1 / RFU, LARP1B / Fold change vs veh, LARP1B / RFU, RASA1 / Fold change vs veh, RASA1 / RFU, RB1 / Fold change vs veh, RB1 / RFU, PPFIA1 / Fold change vs veh, PPFIA1 / RFU, MAT2A / Fold change vs veh, MAT2A / RFU, CCT5 / Fold change vs veh, CCT5 / RFU, WDR92 / Fold change vs veh, WDR92 / RFU, CUX1 / Fold change vs veh, CUX1 / RFU, TTC7A / Fold change vs veh, TTC7A / RFU, TMEM135 / Fold change vs veh, TMEM135 / RFU, DEPTOR / Fold change vs veh, DEPTOR / RFU, CPM / Fold change vs veh, CPM / RFU, DNAJB6 / Fold change vs veh, DNAJB6 / RFU, CACNA2D3 / Fold change vs veh, CACNA2D3 / RFU, DTX4 / Fold change vs veh, DTX4 / RFU, TFCP2 / Fold change vs veh, TFCP2 / RFU, GMCL1 /// GMCL1P1 / Fold change vs veh, GMCL1 /// GMCL1P1 / RFU, AEBP2 / Fold change vs veh, AEBP2 / RFU, SNHG1 /// SNORD22 /// SNORD25 /// SNORD26 /// SNORD27 /// SNORD28 /// SNORD29 /// SNORD31 / Fold change vs veh, SNHG1 /// SNORD22 /// SNORD25 /// SNORD26 /// SNORD27 /// SNORD28 /// SNORD29 /// SNORD31 / Fold change (Aza/veh), C12orf56 (ProbeSet 11735607_a_at) / Fold change (ACY-1035/veh), C12orf56 (ProbeSet 11735607_a_at) / Fold change (Aza/veh), FGFR1OP (ProbeSet 11751329_s_at) / Fold change (ACY-1035/veh), FGFR1OP (ProbeSet 11751329_s_at) / Fold change (Aza/veh), VPS36 (ProbeSet 11739960_a_at) / Fold change (ACY-1035/veh), VPS36 (ProbeSet 11739960_a_at) / RFU SYPL1 (11715823_x_at) / Fold change /veh SYPL1 (11715823_x_at) / RFU IGFBP7 (11715501_s_at) / Fold change /veh IGFBP7 (11715501_s_at) / RFU REEP3 (11722064_at) / Fold change /veh REEP3 (11722064_at) / RFU IGLL1 (11728026_x_at) / Fold change /veh IGLL1 (11728026_x_at): dose or concentration left out as unconfirmed
Details: MV-4-11 cells, 48 hours

Nc1ncn([C@@H]2O[C@H](CO)[C@@H](O)[C@H]2O)c(=O)n1 [azacitidine]
Fold change /veh RASL12 (11751679_a_at): 0.96

— publication PMC5218480 (PLoS ONE, 2017)
